{
  "source": "paper PMC5218480",
  "about": "(PLoS ONE, 2017)",
  "system": "MV-4-11 cells",
  "assay": "Gene expression microarray analysis (Affymetrix PrimeView) and GSEA",
  "type": "cell-based, human",
  "parameters": "RFU PODN (11730768_x_at) / Fold change /veh PODN (11730768_x_at) / RFU LINC00158 (11744669_a_at) / Fold change /veh LINC00158 (11744669_a_at) / RFU DUSP10 (11751237_a_at) / Fold change /veh DUSP10 (11751237_a_at) / RFU ID3 (11757404_x_at) / Fold change /veh ID3 (11757404_x_at) / RFU PLEKHG5 (11737974_s_at) / Fold change /veh PLEKHG5 (11737974_s_at) / RFU LRRC4B (11730491_at) / Fold change /veh LRRC4B (11730491_at) / RFU GIMAP4 (11747438_a_at) / Fold change /veh GIMAP4 (11747438_a_at) / RFU KRT8 (11758183_x_at) / Fold change /veh KRT8 (11758183_x_at) / RFU CNN1 (11734310_a_at) / Fold change /veh CNN1 (11734310_a_at) / RFU VPS37D (11726825_at) / Fold change /veh VPS37D (11726825_at) / RFU C10orf10 (11716522_x_at) / Fold change /veh C10orf10 (11716522_x_at) / RFU KIR2DL2 /// KIR2DL4 /// KIR2DL5A /// KIR2DL5B /// KIR2DS1 /// KIR2DS2 /// KIR2DS3 /// KIR2DS4 /// KIR3DL3 /// KIR3DL3 /// KIR3DS1 (11738374_at) / Fold change /veh KIR2DL2 /// KIR2DL4 /// KIR2DL5A /// KIR2DL5B /// KIR2DS1 /// KIR2DS2 /// KIR2DS3 /// KIR2DS4 /// KIR3DL3 /// KIR3DL3 /// KIR3DS1 (11738374_at) / RFU C1QL1 (11718748_at) / Fold change /veh C1QL1 (11718748_at) / RFU TMPRSS4 (11747572_a_at) / Fold change /veh TMPRSS4 (11747572_a_at) / RFU HAMP (11756126_x_at) / Fold change /veh HAMP (11756126_x_at) / RFU RNFT2 (11725882_a_at) / Fold change /veh RNFT2 (11725882_a_at) / RFU NR4A2 (11747474_a_at) / Fold change /veh NR4A2 (11747474_a_at) / RFU ABCC12 (11746883_a_at) / Fold change /veh ABCC12 (11746883_a_at) / RFU TMEM136 (11760407_x_at) / Fold change /veh TMEM136 (11760407_x_at) / RFU CLDN22 /// WWC2 (11732394_at) / Fold change /veh CLDN22 /// WWC2 (11732394_at) / RFU HLA-DPB1 (11760878_x_at) / Fold change /veh HLA-DPB1 (11760878_x_at) / RFU SPINT1 (11716480_a_at) / Fold change /veh SPINT1 (11716480_a_at) / RFU GAP43 (11754022_s_at) / Fold change /veh GAP43 (11754022_s_at) / RFU A4GNT (11735810_at) / Fold change /veh A4GNT (11735810_at) / RFU PRB3 (11715151_x_at) / Fold change /veh PRB3 (11715151_x_at) / RFU TUBB4B (11761932_at) / Fold change /veh TUBB4B (11761932_at) / RFU CAPN14 (11732068_a_at) / Fold change /veh CAPN14 (11732068_a_at) / RFU TMCC2 (11721928_a_at) / Fold change /veh TMCC2 (11721928_a_at) / RFU IRGQ (11745062_a_at) / Fold change /veh IRGQ (11745062_a_at) / RFU FAM174B (11720279_a_at) / Fold change /veh FAM174B (11720279_a_at) / RFU TMPRSS4 (11748680_a_at) / Fold change /veh TMPRSS4 (11748680_a_at) / RFU FAM212B (11763350_a_at) / Fold change /veh FAM212B (11763350_a_at) / RFU PLEKHG5 (11743358_a_at) / Fold change /veh PLEKHG5 (11743358_a_at) / RFU ZSCAN30 (11745921_a_at) / Fold change /veh ZSCAN30 (11745921_a_at) / RFU CMKLR1 (11741424_a_at) / Fold change /veh CMKLR1 (11741424_a_at) / RFU LOC101060620 /// MAPK8IP1 (11723275_at) / Fold change /veh LOC101060620 /// MAPK8IP1 (11723275_at) / RFU SPTSSB (11747773_x_at) / Fold change /veh SPTSSB (11747773_x_at) / RFU PRSS12 (11739890_at) / Fold change /veh PRSS12 (11739890_at) / RFU BIN1 (11741810_x_at) / Fold change /veh BIN1 (11741810_x_at) / RFU WNT11 (11732464_a_at) / Fold change /veh WNT11 (11732464_a_at) / RFU C10orf10 (11716521_a_at) / Fold change /veh C10orf10 (11716521_a_at) / RFU C5orf56 (11738089_at) / Fold change /veh C5orf56 (11738089_at) / RFU CYB561 (11721691_x_at) / Fold change /veh CYB561 (11721691_x_at) / RFU ANKRD19P (11752326_a_at) / Fold change /veh ANKRD19P (11752326_a_at) / RFU OR2T12 /// OR2T33 /// OR2T8 (11738714_s_at) / Fold change /veh OR2T12 /// OR2T33 /// OR2T8 (11738714_s_at) / RFU VCAN (11748164_a_at) / Fold change /veh VCAN (11748164_a_at) / RFU JSRP1 (11732532_at) / Fold change /veh JSRP1 (11732532_at) / RFU KRTAP10-11 (11738290_x_at) / Fold change /veh KRTAP10-11 (11738290_x_at) / RFU MYO3A (11730013_a_at) / Fold change /veh MYO3A (11730013_a_at) / RFU EBF3 (11725865_a_at) / Fold change /veh EBF3 (11725865_a_at) / RFU CAMK2N1 (11719241_x_at) / Fold change /veh CAMK2N1 (11719241_x_at) / RFU C5orf56 (11738088_a_at) / Fold change /veh C5orf56 (11738088_a_at) / RFU OLFML3 (11715873_a_at) / Fold change /veh OLFML3 (11715873_a_at) / RFU LOC100653217 /// NTM (11731650_a_at) / Fold change /veh LOC100653217 /// NTM (11731650_a_at) / RFU MAPK11 (11762145_a_at) / Fold change /veh MAPK11 (11762145_a_at) / RFU FIZ1 (11724087_x_at) / Fold change /veh FIZ1 (11724087_x_at) / RFU OASL (11726364_x_at) / Fold change /veh OASL (11726364_x_at) / RFU SOX15 (11748057_x_at) / Fold change /veh SOX15 (11748057_x_at) / RFU CD79A (11719716_a_at) / Fold change /veh CD79A (11719716_a_at) / RFU HIST1H1D (11736915_at) / Fold change /veh HIST1H1D (11736915_at) / RFU CASKIN2 (11723855_a_at) / Fold change /veh CASKIN2 (11723855_a_at) / RFU LOC730098 (11760151_x_at) / Fold change /veh LOC730098 (11760151_x_at) / RFU OR4N2 (11742367_at) / Fold change /veh OR4N2 (11742367_at) / RFU PRRT2 (11749266_a_at) / Fold change /veh PRRT2 (11749266_a_at) / RFU SNX32 (11753110_a_at) / Fold change /veh SNX32 (11753110_a_at) / RFU CDHR5 (11726645_a_at) / Fold change /veh CDHR5 (11726645_a_at) / RFU RCAN1 (11760418_a_at) / Fold change /veh RCAN1 (11760418_a_at) / RFU FAM167A (11723789_a_at) / Fold change /veh FAM167A (11723789_a_at) / RFU FAM26E (11764081_at) / Fold change /veh FAM26E (11764081_at) / RFU ISYNA1 (11749810_s_at) / Fold change /veh ISYNA1 (11749810_s_at) / RFU ACY1 (11761880_at) / Fold change /veh ACY1 (11761880_at) / RFU 11764098_at / Fold change /veh 11764098_at / RFU SAMD14 (11745864_x_at) / Fold change /veh SAMD14 (11745864_x_at) / RFU NPB (11741838_a_at) / Fold change /veh NPB (11741838_a_at) / RFU TMPRSS6 (11731388_a_at) / Fold change /veh TMPRSS6 (11731388_a_at) / RFU KRTAP10-2 (11738614_at) / Fold change /veh KRTAP10-2 (11738614_at) / RFU ARHGAP8 /// PRR5-ARHGAP8 (11727945_x_at) / Fold change /veh ARHGAP8 /// PRR5-ARHGAP8 (11727945_x_at) / RFU KRTAP5-7 /// NADSYN1 (11734609_at) / Fold change /veh KRTAP5-7 /// NADSYN1 (11734609_at) / RFU RASL12 (11751679_a_at) / Fold change /veh RASL12 (11751679_a_at) / RFU CDKN2B (11736163_a_at) / Fold change /veh CDKN2B (11736163_a_at) / RFU PRF1 (11729649_at) / Fold change /veh PRF1 (11729649_at) / RFU, ZNF638 /// ZNF638-IT1 / Fold change vs veh, ZNF638 /// ZNF638-IT1 / RFU, PANK3 / Fold change vs veh, PANK3 / RFU, SH3YL1 / Fold change vs veh, SH3YL1 / RFU, ZEB2 / Fold change vs veh, ZEB2 / RFU, NRIP1 / Fold change vs veh, NRIP1 / RFU, PTTG1IP / Fold change vs veh, PTTG1IP / RFU, CAPN2 / Fold change vs veh, CAPN2 / RFU, MED14 / Fold change vs veh, MED14 / RFU, SNORA58 / Fold change vs veh, SNORA58 / RFU, C1orf63 / Fold change vs veh, C1orf63 / RFU, LRRFIP1 / Fold change vs veh, LRRFIP1 / RFU, NDUFAF7 / Fold change vs veh, NDUFAF7 / RFU, SLC12A2 / Fold change vs veh, SLC12A2 / RFU, IBTK / Fold change vs veh, IBTK / RFU, ESF1 / Fold change vs veh, ESF1 / Fold change vs veh, TMEM50B / RFU, TAOK1 / Fold change vs veh, TAOK1 / RFU, ACBD3 / Fold change vs veh, ACBD3 / RFU, TMA16 / Fold change vs veh, TMA16 / RFU, RWDD3 / Fold change vs veh, RWDD3 / RFU, BCAT1 / Fold change vs veh, BCAT1 / RFU, EDEM3 / Fold change vs veh, EDEM3 / RFU, TMEM33 / Fold change vs veh, TMEM33 / RFU, WDR75 / Fold change vs veh, WDR75 / RFU, AHCTF1 / Fold change vs veh, AHCTF1 / RFU, TFRC / Fold change vs veh, TFRC / RFU, ZDHHC17 / Fold change vs veh, ZDHHC17 / RFU, NOM1 / Fold change vs veh, NOM1 / RFU, ARL8B / Fold change vs veh, ARL8B / RFU, ZBTB11 / Fold change vs veh, ZBTB11 / RFU, TAMM41 / Fold change vs veh, TAMM41 / RFU, KIAA1704 /// LOC100996395 / Fold change vs veh, KIAA1704 /// LOC100996395 / RFU, ING1 / Fold change vs veh, ING1 / RFU, TRMT61B / Fold change vs veh, TRMT61B / RFU, FUBP3 / Fold change vs veh, FUBP3 / RFU, TP53 / Fold change vs veh, TP53 / RFU, TNKS2 / Fold change vs veh, TNKS2 / RFU, ZFP14 / Fold change vs veh, ZFP14 / RFU, ACTR2 / Fold change vs veh, ACTR2 / RFU, PPP3R1 / Fold change vs veh, PPP3R1 / RFU, PIK3R1 / Fold change vs veh, PIK3R1 / RFU, HNRNPA1 / Fold change vs veh, HNRNPA1 / RFU, RNF170 / Fold change vs veh, RNF170 / RFU, ZNF28 / Fold change vs veh, ZNF28 / RFU, RNGTT / Fold change vs veh, RNGTT / RFU, OGT / Fold change vs veh, OGT / RFU, BRD1 / Fold change vs veh, BRD1 / RFU, MARS / Fold change vs veh, MARS / RFU, ZNF655 / Fold change vs veh, ZNF655 / RFU, FAHD1 / Fold change vs veh, FAHD1 / RFU, BDP1 / Fold change vs veh, BDP1 / RFU, LRRCC1 / Fold change vs veh, LRRCC1 / RFU, ARID1A / Fold change vs veh, ARID1A / RFU, ZNF146 / Fold change vs veh, ZNF146 / RFU, ZNF330 / Fold change vs veh, ZNF330 / RFU, GPN3 / Fold change vs veh, GPN3 / RFU, C9orf123 / Fold change vs veh, C9orf123 / RFU, N4BP2L2 / Fold change vs veh, N4BP2L2 / RFU, ARFIP1 / Fold change vs veh, ARFIP1 / RFU, FAM179B / Fold change vs veh, FAM179B / RFU, BCL10 / Fold change vs veh, BCL10 / RFU, UHRF1BP1L / Fold change vs veh, UHRF1BP1L / RFU, BET1 / Fold change vs veh, BET1 / RFU, CNOT2 / Fold change vs veh, CNOT2 / RFU, ZNF268 / Fold change vs veh, ZNF268 / Fold change vs veh, ZNF507 / RFU, DGCR2 / Fold change vs veh, DGCR2 / RFU, WDSUB1 / Fold change vs veh, WDSUB1 / Fold change vs veh, HSP90B1 /// MIR3652 / RFU, ADSS / Fold change vs veh, ADSS / RFU, GK / Fold change vs veh, GK / RFU, ZNF148 / Fold change vs veh, ZNF148 / RFU, TAF9 / Fold change vs veh, TAF9 / RFU, SLC1A5 / Fold change vs veh, SLC1A5 / RFU, SLMO2 / Fold change vs veh, SLMO2 / RFU, ABCC4 / Fold change vs veh, ABCC4 / RFU, LOC101060439 /// RAP1B / Fold change vs veh, LOC101060439 /// RAP1B / RFU, RFX7 / Fold change vs veh, RFX7 / RFU, GTPBP10 / Fold change vs veh, GTPBP10 / RFU, CNEP1R1 / Fold change vs veh, CNEP1R1 / RFU, BIVM-ERCC5 /// ERCC5 / Fold change vs veh, BIVM-ERCC5 /// ERCC5 / RFU, ILF3 / Fold change vs veh, ILF3 / RFU 11762660_at / Fold change /veh 11762660_at / RFU VCAN (11757783_s_at) / Fold change /veh VCAN (11757783_s_at) / RFU DDX43 (11728927_at) / Fold change /veh DDX43 (11728927_at) / RFU KRT8 (11758188_x_at) / Fold change /veh KRT8 (11758188_x_at) / RFU NKD1 (11759106_at) / Fold change /veh NKD1 (11759106_at) / RFU SRD5A1 (11742802_a_at) / Fold change /veh SRD5A1 (11742802_a_at) / RFU TPSAB1 /// TPSB2 (11721975_s_at) / Fold change /veh TPSAB1 /// TPSB2 (11721975_s_at) / RFU GSTM3 (11746129_a_at) / Fold change /veh GSTM3 (11746129_a_at) / RFU IL23R (11737362_x_at) / Fold change /veh IL23R (11737362_x_at) / RFU TMEM51 (11727254_a_at) / Fold change /veh TMEM51 (11727254_a_at) / RFU PIWIL2 (11732686_x_at) / Fold change /veh PIWIL2 (11732686_x_at) / RFU ORM1 (11744905_x_at) / Fold change /veh ORM1 (11744905_x_at) / RFU CCDC152 (11743942_at) / Fold change /veh CCDC152 (11743942_at) / RFU ECM1 (11717891_a_at) / Fold change /veh ECM1 (11717891_a_at) / RFU IL23R (11748794_a_at) / Fold change /veh IL23R (11748794_a_at) / RFU TNFAIP8L3 (11732012_x_at) / Fold change /veh TNFAIP8L3 (11732012_x_at) / RFU MBOAT4 (11741988_at) / Fold change /veh MBOAT4 (11741988_at) / RFU 11764193_at / Fold change /veh 11764193_at / RFU TMEM53 (11763286_at) / Fold change /veh TMEM53 (11763286_at) / RFU MAGEB2 (11727129_at) / Fold change /veh MAGEB2 (11727129_at) / RFU TMEM200A (11744735_a_at) / Fold change /veh TMEM200A (11744735_a_at) / RFU CCDC152 (11751479_a_at) / Fold change /veh CCDC152 (11751479_a_at) / RFU FAM211A (11726209_a_at) / Fold change /veh FAM211A (11726209_a_at) / RFU RGS16 (11746705_a_at) / Fold change /veh RGS16 (11746705_a_at) / RFU VCAN (11755009_s_at) / Fold change /veh VCAN (11755009_s_at) / RFU RHOB (11743442_s_at) / Fold change /veh RHOB (11743442_s_at) / RFU RGS16 (11720943_a_at) / Fold change /veh RGS16 (11720943_a_at) / RFU RGS16 (11720944_at) / Fold change /veh RGS16 (11720944_at) / RFU, VPS4B / Fold change vs veh, VPS4B / RFU, CREB1 / Fold change vs veh, CREB1 / RFU, DNAJC13 / Fold change vs veh, DNAJC13 / RFU, GNAQ / Fold change vs veh, GNAQ / RFU, CDK5R1 / Fold change vs veh, CDK5R1 / RFU, ZRANB3 / Fold change vs veh, ZRANB3 / RFU, CUL4A / Fold change vs veh, CUL4A / RFU, CCNY / Fold change vs veh, CCNY / RFU, UFL1 / Fold change vs veh, UFL1 / RFU, COG3 / Fold change vs veh, COG3 / RFU, DIAPH2 / Fold change vs veh, DIAPH2 / RFU, SKA2 / Fold change vs veh, SKA2 / RFU, AFF3 / Fold change vs veh, AFF3 / RFU, LMF1 / Fold change vs veh, LMF1 / RFU, IPO11 / Fold change vs veh, IPO11 / RFU, DFFB / Fold change vs veh, DFFB / RFU, FOXP1 / Fold change vs veh, FOXP1 / RFU, CARD8 / Fold change vs veh, CARD8 / RFU, STRN3 / Fold change vs veh, STRN3 / RFU, ADK / Fold change vs veh, ADK / RFU, RASSF2 / Fold change vs veh, RASSF2 / RFU, WIPF1 / Fold change vs veh, WIPF1 / RFU, LARP1B / Fold change vs veh, LARP1B / RFU, RASA1 / Fold change vs veh, RASA1 / RFU, RB1 / Fold change vs veh, RB1 / RFU, PPFIA1 / Fold change vs veh, PPFIA1 / RFU, MAT2A / Fold change vs veh, MAT2A / RFU, CCT5 / Fold change vs veh, CCT5 / RFU, WDR92 / Fold change vs veh, WDR92 / RFU, CUX1 / Fold change vs veh, CUX1 / RFU, TTC7A / Fold change vs veh, TTC7A / RFU, TMEM135 / Fold change vs veh, TMEM135 / RFU, DEPTOR / Fold change vs veh, DEPTOR / RFU, CPM / Fold change vs veh, CPM / RFU, DNAJB6 / Fold change vs veh, DNAJB6 / RFU, CACNA2D3 / Fold change vs veh, CACNA2D3 / RFU, DTX4 / Fold change vs veh, DTX4 / RFU, TFCP2 / Fold change vs veh, TFCP2 / RFU, GMCL1 /// GMCL1P1 / Fold change vs veh, GMCL1 /// GMCL1P1 / RFU, AEBP2 / Fold change vs veh, AEBP2 / RFU, SNHG1 /// SNORD22 /// SNORD25 /// SNORD26 /// SNORD27 /// SNORD28 /// SNORD29 /// SNORD31 / Fold change vs veh, SNHG1 /// SNORD22 /// SNORD25 /// SNORD26 /// SNORD27 /// SNORD28 /// SNORD29 /// SNORD31 / Fold change (Aza/veh), C12orf56 (ProbeSet 11735607_a_at) / Fold change (ACY-1035/veh), C12orf56 (ProbeSet 11735607_a_at) / Fold change (Aza/veh), FGFR1OP (ProbeSet 11751329_s_at) / Fold change (ACY-1035/veh), FGFR1OP (ProbeSet 11751329_s_at) / Fold change (Aza/veh), VPS36 (ProbeSet 11739960_a_at) / Fold change (ACY-1035/veh), VPS36 (ProbeSet 11739960_a_at) / RFU SYPL1 (11715823_x_at) / Fold change /veh SYPL1 (11715823_x_at) / RFU IGFBP7 (11715501_s_at) / Fold change /veh IGFBP7 (11715501_s_at) / RFU REEP3 (11722064_at) / Fold change /veh REEP3 (11722064_at) / RFU IGLL1 (11728026_x_at) / Fold change /veh IGLL1 (11728026_x_at): dose or concentration left out as unconfirmed",
  "conditions": "MV-4-11 cells, 48 hours",
  "data": [
    {"smiles": "Nc1ccc(-c2cccs2)cc1NC(=O)c1ccc2c(c1)cc(C1CC1)n2CCN1CCOCC1", "note": "[ACY-1035]", "values": [
      {"measurement": "Fold change /veh ORM1 (11744905_x_at)", "value": 1.11}
    ]}
  ]
}
